These results are taken from paper PMC10098121, “Amphipathic barbiturates as marine product mimics with cytolytic and immunogenic effects on head and neck squamous cell carcinoma cell lines” (Frontiers in Pharmacology, 2023).

What is called MIC is the least concentration at which growth counts as inhibited.

Test [1] relates to UT-SCC-24A cells. The test is described as follows: Flow cytometric detection of apoptosis (Annexin V/PI). The test is classed as cell-based, human. The note with it: 24 h. The protocol:
HSC-3 and UT-SCC-24A cells were seeded, 300,000 cells/well, in 6-well plates and left to adhere overnight. The media was then removed and replaced by 2 ml complete DMEM/F-12 containing 5, 7.5, 10 or 20 µM of MPM-2:0, MPM-6:0, MPM-3:2 or MPM-4:2, or 50 µM cisplatin. Some cells were left untreated. The cells were then incubated for 24 h. Next, the cell supernatants were collected before the cells were trypsinized and spun down with the supernatants. For the staining, an apoptosis detection kit was used (#88-8005-74, Thermo Fisher Scientific). The cells were washed once in PBS and once in 1x binding buffer before being incubated with FITC labeled Annexin V diluted 1:25 in 1 × binding buffer for 15 min. Next the cells were washed in 1 × binding buffer before being incubated with PI diluted 1:100 in 1 × binding buffer for at least 5 min before analysis was performed on the LSR Fortessa (BD Biosciences, CA, United States). Analyses were performed in FlowJo™ v.10 (https://www.flowjo.com/).
For orientation: Flow cytometry measures light scatter and fluorescence of single cells or particles in a stream.

Test [2] deals with Bacillus subtilis 168. Description: Bacterial minimum inhibitory concentration (broth microdilution). The test is classed as cell-based. The note with it: Bacillus subtilis 168, 48 h, 35 °C, di-TFA salts.
For test [3], the system named is Pseudomonas aeruginosa ATCC 27853. The description is as above. It counts as cell-based. The note with it: ATCC27853; Pseudomonas aeruginosa ATCC 27853, 48 h, 35 °C, di-TFA salts.
Test [4] relates to Staphylococcus aureus ATCC 9144. Described as above. It counts as cell-based. The note with it: ATCC9144; Staphylococcus aureus ATCC 9144, 48 h, 35 °C, di-TFA salts.
For test [5], the system named is seven HNSCC cell lines and one normal oral fibroblast cell line (NOF). The test is described as follows: High throughput drug screening, statements on the whole panel. The note with it: 72 h, DSS. It counts as cell-based, human. The protocol:
The MPMs were screened against a panel of […] different cell lines (HSC-3, UT-SCC-8, UT-SCC-24A, UT-SCC-24B, UT-SCC-42A, UT-SCC-42B and NOF) at the High Throughput Biomedicine Unit (HTB) at the Institute for Molecular Medicine Finland (FIMM). On day 1, black-walled 384-well plates were coated with 5 µl diluted myogel (0.5 mg/ml) per well using an automated reagent dispenser (MultiFlo FX, BioTek, Winooski, VT, United States). On day 2, 500 cells per well were seeded in 20 µl of complete media using the MultiFlo FX (BioTek), and the cells were left to adhere overnight. On day 3, the MPMs, cisplatin, DMSO and Benzethonium chloride were added to the cells using an automatic liquid handler (Echo 550, Labcyte Inc., San Jose, CA, United States). Cisplatin and the MPMs were added to yield five different concentrations in a ten-fold dilution series ranging from 10 to 100,000 nM. Each concentration was tested in triplicate wells. DMSO (0.1%) and benzethonium chloride (100 µM) served as negative and positive control, respectively. Three hours later, some of the plates were irradiated with 2 Gy in a gamma irradiator (OB29/4, STS, Braunschweig, Germany). All plates were taken to the irradiation room to ensure similar handling of the plates. 72 h later, the plates were cooled to room temperature before 25 µl of CellTiter-Glo 2.0 reagent (Promega, Madison, WI, USA) was added to each well using the MultiFlo FX (BioTek). Next, the plates were centrifuged for 5 min at 1,000 rpm before the luminescence signal was measured with the PHERAstar FS HT reader (BMG LABTECH GmbH, Ortenberg, Germany). The raw data was analyzed with the Breeze software (https://breeze.fmm.fi), which normalized the luminescence signal from treated cells against the signal from negative and positive control cells to calculate the percentage of inhibition and generate dose-response curves, which were then used to calculate drug sensitivity scores (DSS). The DSS is a parameter which combines the IC50, the slope of the dose-response curve, and the minimum and maximum responses into a single metric, as previously described ([Yadav et al., 2014]). Quality control was performed by calculation of the Z′-factor, which was >0.7 for all cell lines, indicating high quality of the assay ([Zhang et al., 1999]).

Structures are written as SMILES.

For the compound `N.N.[Cl][Pt][Cl]` [Cisplatin, cisplatin, reference compound], the “apoptotic (Annexin V+/PI−) population (in words)” value in test [1] (cisplatin 50 µM, MPMs 5-20 µM) is reported as “small, but clearly apoptotic (Annexin V+/PI−) population”.
In the case of `NCCN1C(=O)N(CCN)C(=O)C(CCCc2ccccc2)(CCCc2ccccc2)C1=O` [MPM-2:0], the figures for the MIC in test [2], in test [3] and in test [4] were 8 µg/mL, 16 µg/mL and 8 µg/mL, respectively. In addition, the “potency / effect on viability over the cell line panel (in words)” value in test [5] is given as “had the highest DSS”.
`CN(C)CCCN1C(=O)N(CCCN(C)C)C(=O)C(CCCc2ccccc2)(CCCc2ccccc2)C1=O` [MPM-3:2]: the “Annexin V−/PI+ population (in words)” value in test [1] is listed as “induced a large population of Annexin V−/PI + UT-SCC-24A cells”. For the same compound, the MIC in test [2] was 16 µg/mL; in test [3], > 64 µg/mL; in test [4], > 64 µg/mL. Moreover, the “potency / effect on viability over the cell line panel (in words)” value in test [5] was “had the highest DSS”.
As for `CN(C)CCCCN1C(=O)N(CCCCN(C)C)C(=O)C(CCCc2ccccc2)(CCCc2ccccc2)C1=O` [MPM-4:2], the “Annexin V−/PI+ population (in words)” value in test [1] is reported as “induced a large population of Annexin V−/PI + UT-SCC-24A cells”. Further, the minimal inhibitory concentration (MIC) in test [2] was 16 µg/mL; in test [3] it was > 64 µg/mL; in test [4], 64 µg/mL. Moreover, the “potency / effect on viability over the cell line panel (in words)” value in test [5] is listed as “had the highest DSS”.
`NCCCCCCN1C(=O)N(CCCCCCN)C(=O)C(CCCc2ccccc2)(CCCc2ccccc2)C1=O` [MPM-6:0]: the results for the MIC in test [2], in test [3] and in test [4] were 2 µg/mL, 8 µg/mL and 4 µg/mL, respectively. Further, the “potency / effect on viability over the cell line panel (in words)” value in test [5] is listed as “had the highest DSS”.
